Experiments:
white male mice = details: for LD50: intraperitoneal injection, white male mice, 14 days observation
Method: The acute toxicity of 1,3-dialkyl-4,5-bis (N-methylcarbamoyl)imidazolium salts was assessed following intraperitoneal injection into 200 white male mice weighing 18 to 20 g. Dead animals were counted daily after the administration of the test substance.

[1] = test system: acute Con A-induced inflammation; assay: Acute Con A-induced inflammation (paw oedema) in mice; type: in vivo
Method: Saline solution was similarly administered to the control animals. There were 10 mice in each group. After one hour, con A at a dose of 100 mkg/20 g of body weight was administered by sub-plantar injection into the plantar aponeurosis of the left paws of mice of both the experimental and control groups. The same amount of saline splution was injected into the contralateral paws. After one hour, the mice were killed and the experimental and control paws were weighed to assess the reaction index of the inflammation in the ankle-joint (Liubimov et al, 1999).
The anti-inflammatory effect of Compound 2 and Compound 7 was compared in male mice weighing 18-22 g, using the model described in Example 9. The ED50, i.e. the dose reducing paw ooedema by 50% one hour after injection of Concanavalin A, was calculated.

[2] = test system: liver after partial hepatectomy; assay: Morphological study of the liver after partial hepatectomy; type: in vivo, rats; details: 0.2 MM/kg; one week after hepatectomy
Method: Morphological methods are highly informative in the assessment of repair processes. Histological tests of the liver after partial hepatectomy were performed using generally accepted methods. Microscopic sections were stained with hematoxylin and eosin using Van Gieson's methodology. Liver tests after partial hepatectomy were performed on 8 groups of animals, totalling 37 rats. All animals were examined one week after hepatectomy.

[3] = test system: regeneration of liver after partial hepatectomy; assay: Liver regeneration after partial hepatectomy in rats; type: in vivo
Method: Partial hepatectomy was performed using the conventional method (Higgins and Anderson, 1931) by removing the left lateral and central lobes of the liver from 80 male white rats, weighing 180-200 g.
Compound 2, Compound 4, Compound 5 or Compound 6 was administered to the experimental groups intraperitoneally in equimolar doses of 0.1 mM/kg and 0.2 mM/kg. These optimal doses were determined in preliminary experiments. The control group received intraperitoneal injections of saline solution. The compounds were administered on the day after the operation and then one injection was given daily over the course of 7 days, since maximum growth of the liver mass in rats is observed in the first 7 days after partial hepatectomy (Solopaev, 1980).
The effectiveness of the compounds was compared to that of a combination of non-steroid anabolic regeneration stimulators which are used in the treatment of liver pathology, namely Riboxin and potassium orotate at a dose of 0.2 mM/kg each (Rychnev and Frolov, 1984).
For quantitative evaluation of the regeneration process in the liver the coefficient of regeneration completion as determined by the formula below was used: [formula] where
Stimulation of the regeneration of tissue after hepatectomy in response to different medicinal preparations is associated with an increase in the synthesis of nucleic acids, as indicated by the increase in the content of RNA and DNA in the regenerated tissue. Quantitative analysis of DNA and RNA was performed by centrifugation. […] The enzymic component of anti-oxidant protection was also assessed on the basis of the activity of catalase and superoxidedismutase (SOD).
5 ml of […] of HCIO4 solution were added to the sample (100 mg). In order to ensure complete sedimentation of the acid-insoluble fraction, the beakers were put in ice for 15 minutes. Then they were centrifuged for 10 minutes at 5000 revolutions per minute. The sediment was washed twice with 0.2 M HCIO4. After the final centrifugation, the walls of the beaker were carefully dried with gauze and filter paper. The sediment was ground down with a glass pestle, suspended in 1 ml of water and then 1 ml of 0.6 M KON solution was added at room temperature. Hydrolysis was performed over the course of 1 hour at 37° C., then the beakers were put in ice to stop the hydrolysis process. 4 ml of the 0.6 M solution were added to each beaker and the beakers were left in ice for another 15 minutes, then centrifuged for 15 minutes at 5000 revolutions per minute. The supernatant was used to determine the RNA by UV absorption at 260 nm and 290 nm compared to the control sample containing 0.4M of HCIO4). The amount of RNA in μg per 1 ml of the supernatant was calculated using the following formula: [formula] where C=is the RNA concentration (μg/ml)
DNA analysis was carried out on the sediment remaining after the alkaline hydrolysis used to determine RNA. 0.5 M of HCIO4 (5 ml per sample) was poured into the dried beaker containing the sediment. Hydrolysis was performed in a boiling water bath for 20 minutes. The amount of DNA in μg per 1 ml of the hydrolysate was calculated using the following formula: [formula] where C=is the DNA concentration (μg/ml). Catalase Activity
Catalase activity was determined using the permanganate method. The optimal amount of the substrate (3 ml of 1% H2O2) and 1 ml of the enzyme were added to 10 ml of phosphate buffer, pH 7.8. After 10 minutes the reaction was stopped by adding 1.5 ml of H2SO4 (50%). The remaining hydrogen peroxide was filtered with 0.1M of KMnO4 solution. Catalase activity was calculated on the basis that 1 ml of 0.1M of KMnO4 solution corresponds to […] of H2O2.
SOD activity was determined using the dianisidine method, which is based on the fact that under ultraviolet irradiation Riboflavin (Rb) is converted to an excited (ionised) state and therefore becomes able to attack reduced dianisidine (DH2). […]

myocardial infarction = assay: Clinical comparison of Compound 2 and Riboxin in subacute myocardial infarction (Example 25); type: in vivo, human
Method: A total of 94 patients were examined; of these:
Conventional therapy as for example 24 was given to 30 patients. Each patient continued to receive the treatment which s/he had been given prior to commencement of the trial. Compound 2 was administered in addition to the previous treatment.
All the patients underwent standard laboratory tests prior to commencement of Compound 2 therapy, 14 days after the beginning of the course and upon completion of the course. The tests included clinical blood analysis; general urine analysis; evaluation of creatinine, bilirubin, transaminase activity, blood sugar, cholesterol and β-lipoproteins, malonic dialdehyde, Schiff bases, zinc, iron, copper, plasma potassium and sodium, prothrombin and fibrinogen; and an ECG examination in dynamics.
All the patients received conventional therapy, i.e. nitrates, anticoagulants and/or hypotensive agents as appropriate.
Combination therapy included Compound 2 (1st group—32 patients) or Riboxin (2nd group—18 patients). The agents were administered at a dose of 200 mg three times per day.

[4] = test system: cryogenic injuries of the sigmoid colon; assay: Cryogenic damage of the colon, model of ulcerative colitis; type: in vivo, rats; details: day 7; oral; Methyl uracil 180 mg/kg, Potassium orotate 50 mg/kg + Riboxin 50 mg/kg, Sulfasalazine 2 g/kg; one figure for the comparison agents
Method: A model of cryogenic damage of the colon was used in this experiment to simulate ulcerative colitis. Cryogenic injuries of the sigmoid colon of rats were induced by pressing a metal rod of […] in diameter cooled in liquid nitrogen to the serous membrane of the colon for 10 seconds under ether anaesthesia.
Tests were performed on 67 male rats weighing 180-200 g, with 8 animals in each group. Animals were kept in separate cages, with normal food and water ad libitum. The test compounds were administered orally on the second day after the operation, and then daily until healing was complete. Compound 2 or Compound 6 was administered to test animals at a dose of 20-50 mg/kg. The following agents were used for comparison:
The nature of the healing of the ulcer injury was examined morphologically on days 1, 3 and 7. […] The inflammatory process extends beyond the injured area into the adjacent areas, and beyond the peritoneum into fatty connective tissue.

[5] = test system: lesions of the gastric mucosa; assay: Gastric lesions induced by immobilization and hypothermia; type: in vivo, rats; set-up: % reduction of degree of ulceration / % reduction of ulcerated area: concentration or dose not given beside the values; details: Protective effect, 30 minutes before the test
Method: (§1) The models used gastric ulcers induced by
b) Immobilization and hypothermia (induced by water cooling);
(§2) The compounds were administered intraperitoneally at a dose of 20 mg/kg; in the cryogenic ulcer model compound 2 was administered either intraperitoneally (10 mg/kg) or orally (20 mg/kg twice daily, ie. a total of 40 mg/kg/day) and was compared to orally-administered gastrocepin (1 mg/kg twice daily, ie. a total of 2 mg/kg/day).

[6] = test system: lesions of the gastric mucosa; assay: Gastric lesions induced by electrostimulation of immobilised rats; type: in vivo
Method: as §1
a) Electrostimulation of immobilised rats for 3 hours;
as §2

[7] = test system: cryogenic ulcer of the gastric mucosa; assay: Cryogenic gastric ulcer in rats; type: in vivo; details: healing effect over the course of 14 days; regimen not printed in the row
Method: as §1
c) Ulcer created by local wounding with a cryogenic probe using a method similar to that described above for mouth ulcers.
as §2

[8] = test system: neurogenic dystrophy of the myocardium; assay: Myocardial infarction model (electrostimulation), enzymes in rabbit myocardium; type: in vivo, rabbits; details: 5 mg/kg; 48 hours after electrostimulation
From the text: The effect of Compound 2 on myocardial tissue in an experimental model of myocardial infarction was examined. In this model system neurogenic dystrophy of the myocardium was induced in rats or rabbits by electrical stimulation of the reflexogenic zone of the aortic arch by implanted electrodes for a period of three hours. […] These changes are accompanied by changes in biochemical indicators such as creatine phosphate, cAMP, and calcium ion concentrations, and changes in the activity of redox enzymes such as succinate dehydrogenase, lactate dehydrogenase, and glucose-6-phosphate dehydrogenase. At a later stage organic lesions of the myocardium such as necrotic and fibrosclerotic foci can be observed.
The effect of Compound 2 given intraperitoneally or orally on these indicators was examined in rats and rabbits following electrostimulation as described above. The effects on levels of creatine phosphate in rat myocardial are shown in Table 19, and the effects on adenosine triphosphatase (ATPase), succinate dehydrogenase and glucose-6-phosphate dehydrogenase rabbit myocardium are shown in Table 20. The effects on cAMP and Ca^++ levels in rabbit myocardial tissue are shown in FIG. 5, and effects on creatine kinase in rabbit myocardium and blood and the levels of creatine phosphate in myocardium are shown in FIG. 6.

[9] = Table 4, 0.005M dose (Compound 2 19 mg/kg, Compound 7 16.4 mg/kg) + Con A
[10] = Table 4, 0.01M dose (Compound 2 38 mg/kg, Compound 7 32 mg/kg) + Con A
[11] = Table 4, 0.015M dose (Compound 2 57 mg/kg, Compound 7 49 mg/kg) + Con A
[12] = Table 4, 0.02M dose (Compound 2 76 mg/kg, Compound 7 65.6 mg/kg) + Con A
[13] = Table 3, 50 mg/kg intra-peritoneally one hour before Con A, male CBA mice
[14] = 200 mg three times per day plus conventional therapy
[15] = Healing effect over the course of 3 days
[16] = Protective effect, 30 minutes before the test

Compound: 1-methyl-3-ethyl-4,5-bis(N-methylcarbamoyl)-imidazolium 2,4-dihydroxybenzoate [Compound 7]
- toxicity (white male mice): very low toxicity
- LD50 (white male mice): 1221 mg/kg
- Paw oedema reduction (%) [1, 9]: 60%
- Reaction index (%) [1, 9]: 6.73 ± 2.2%
- Paw oedema reduction (%) [1, 10]: 13%
- Reaction index (%) [1, 10]: 9.93 ± 2.8%
- Paw oedema reduction (%) [1, 11]: 45%
- Reaction index (%) [1, 11]: 7.2 ± 1.8%
- Paw oedema reduction (%) [1, 12]: 70%
- Reaction index (%) [1, 12]: 4.9 ± 1.7%
- ED50, dose reducing paw oedema by 50% one hour after injection of Concanavalin A ([1]; male mice): 52 mg/kg

Compound: CC[n+]1cn(C)c(C(=O)NC)c1C(=O)NC.O=C([O-])c1ccccc1 [Compound 5, 1-methyl-3-ethyl-4,5-bis(N-methylcarbamoyl)-imidazolium benzoate]
- histological findings in the liver [2]: some of the animals demonstrated hepatocyte hypertrophy combined with subacute hepatitis
- Catalase E activity ([3]; 0.2 mM/kg): 17.3 ± 2.6 μgM/min/g tissue × 1000
- DNA content (in mg/g of tissue) ([3]; 0.2 mM/kg): 3.76 ± 0.29 mg/g of tissue
- Protein content ([3]; 0.2 mM/kg): 86.8 ± 6.9 Mg/g tissue
- RNA content (mg/g of tissue) ([3]; 0.2 mM/kg): 7.46 ± 0.14 mg/g of tissue
- SOD activity ([3]; 0.2 mM/kg): 103.0 ± 4.4 Units/g tissue
- Level of recovery ([3]; 0.2 mM/kg intraperitoneally, 7 days, hepatectomy alone = 100): 120.3
- Reaction index (%) [1, 13]: 7.2 ± 1.8 %

Compound: OC[C@H]1O[C@@H](n2cnc3c(O)ncnc32)[C@H](O)[C@@H]1O [Riboxin, inosine, reference compound]
- cholesterol levels (myocardial infarction; [14]): 85.5%
- level of prothrombin (myocardial infarction; [14]): 88.7%
- ejection fraction (myocardial infarction; 200 mg three times per day plus conventional therapy, 54.4±1.5% in the absence of the agent): 56.8±1.3%
- superoxide dismutase levels (myocardial infarction; after therapy, 18-20 before treatment, norm 23): 21.5 conventional units
- level of Schiff bases (myocardial infarction; after therapy, 75 before treatment, normal 60): 62.6 conventional units
- cases in which cicatrisation took place one or two days earlier (myocardial infarction; patients with repeated myocardial infarct): 12%

Compound: Cc1cc(=O)[nH]c(=O)[nH]1 [Methyl uracil, reference compound]
- animals demonstrating complete healing [4]: 18%

Compound: 1,3-dimethyl-4,5-bis(N-methylcarbamoyl)-imidazolium benzenesulfonate [Compound 1]
- % reduction of degree of ulceration [5]: 0%
- % reduction of ulcerated area [5]: 0%
- Area of lesion [5]: 10.1 ± 1.4
- Average number of lesions per animal ([5]; 20 mg/kg intraperitoneally): 10.2 ± 1.2
- % reduction of degree of ulceration [6, 15]: 18%
- Average number of lesions per animal [6, 15]: 2.8 ± 0.7
- % reduction of degree of ulceration [6, 16]: 0%
- % reduction of ulcerated area [6, 16]: 0%
- Area of lesion [6, 16]: 15.0 ± 4.7
- Average number of lesions per animal ([6]; Protective effect, 30 minutes before the test, 20 mg/kg intraperitoneally): 7.0 ± 0.7
- toxicity (white male mice): very low toxicity
- LD50 (white male mice): 1833 mg/kg
- % reduction of degree of ulceration [7]: 53%
- Average number of lesions per animal [7]: 8.8 ± 1.9
- Reaction index (%) ([1]; Table 3, 10 mg/kg intra-peritoneally one hour before Con A, male CBA mice): 14.6 ± 3.5%
- Reaction index (%) [1, 13]: 5.3 ± 2.0 %

Compound: CCn1cnc(C(=O)NC)c1C(=O)NC [Ethimizol, 1-ethylimidazole-4,5-dicarboxylic acid bis-N-methylamide, reference compound]
- ATPase [8]: 0.43 ± 0.11 µM/mg/min
- Glucose-6-phosphate dehydrogenase (optical density units) [8]: 5.8 ± 0.7 optical density units
- Succinate dehydrogenase (optical density units) [8]: 39.7 ± 7.4 optical density units

Compound: O=C(O)c1cc(/N=N/c2ccc(S(=O)(=O)Nc3ccccn3)cc2)ccc1O [Sulphasalazine, Sulfasalazine, reference compound]
- animals demonstrating complete healing [4]: 18%

From patent publication US20060135587A1, “Method and compounds for promoting healing and reducing inflammation” (priority 2002, published 2006)
